Measurements taken from paper PMC6556873, “Rapid Covalent-Probe Discovery by Electrophile-Fragment Screening” (Journal of the American Chemical Society, 2019).
Where two headings read alike, the source gives them in different places.

What was measured:
[1] = target: T1, NUDT7 (Homo sapiens, UniProt P0C024); assay: RapidFire MS acetyl-CoA hydrolysis, kobs vs [inhibitor]; format: biochemical
T1 construct: residues 14-235, E. coli, pNIC28-Bsa4, N-terminal His6 tag removed by TEV, construct 26672 Da

[2] = target: T1, NUDT7; assay: RapidFire MS acetyl-CoA hydrolysis assay; format: biochemical
[3] = target: T1, NUDT7; assay: RapidFire MS acetyl-CoA hydrolysis, kobs vs [inhibitor]; format: biochemical; conditions: covalent, inactivation constant KI from kinact/KI fit, 5 mM MgCl2, pH 7.5
[4] = target: T1, NUDT7; assay: X-ray cocrystal structure; format: binding; conditions: covalent; C73
[5] = target: T2, BSA (Bos taurus, UniProt P02769); set-up: Intact protein LC/MS covalent labelling, fragments in pools of five, 200 uM each, 4 °C; conditions: 24 h, 4 °C, pool of five; 200 µM; covalent
T2 construct: gene ALB

[6] = target: T1, NUDT7; set-up: Intact protein LC/MS covalent labelling, fragments in pools of five, 200 uM each, 4 °C; conditions: 24 h, 4 °C, pool of five; 200 µM; covalent
[7] = target: T3, OTUB2 (OTUB2A) (Homo sapiens, UniProt Q96DC9); set-up: Intact protein LC/MS covalent labelling, fragments in pools of five, 200 uM each, 4 °C; conditions: 24 h, 4 °C, pool of five; 200 µM; covalent
T3 construct: full length residues 1-234, E. coli BL21(DE3)-R3, His tag removed by TEV, construct 27312 Da
T3 sequence (Q96DC9 1-234): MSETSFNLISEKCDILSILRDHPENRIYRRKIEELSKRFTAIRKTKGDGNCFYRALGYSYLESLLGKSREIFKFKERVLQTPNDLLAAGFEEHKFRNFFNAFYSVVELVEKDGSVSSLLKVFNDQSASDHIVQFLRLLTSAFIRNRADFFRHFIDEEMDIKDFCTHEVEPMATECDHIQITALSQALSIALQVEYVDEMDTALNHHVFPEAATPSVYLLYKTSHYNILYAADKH

[8] = target: T4, PCAF (Homo sapiens, UniProt Q92831); set-up: Intact protein LC/MS covalent labelling, fragments in pools of five, 200 uM each, 4 °C; conditions: 24 h, 4 °C, pool of five; 200 µM; covalent
T4 construct: gene KAT2B

[9] = in vitro; set-up: species or system CCD841, HEK293; conditions: human, hb2 cells, read-out: HB-2 Cells Viability (%)
[10] = in vitro; set-up: species or system HB2, HEK293; conditions: human, ccd841 cells
[11] = in vitro; set-up: species or system HB2, CCD841; conditions: human, hek293 cells
[12] = target: T1, NUDT7; assay: X-ray crystal structure, soak; conditions: noncovalent; putative substrate binding region
[13] = target: T3, OTUB2 (OTUB2A); assay: intact protein LC/MS labeling; format: binding; conditions: covalent; 24 h, 4 °C
[14] = target: T3, OTUB2 (OTUB2A); assay: intact protein LC/MS labeling; format: binding; conditions: covalent; 24 h, 4 °C; remark: listed apart in the source
[15] = target: T1, NUDT7; assay: intact protein LC/MS labeling; format: binding; conditions: covalent; 24 h, 4 °C, 2 μM protein, pools of five, pH 7.5
[16] = target: T5, USP8 (Homo sapiens, UniProt P40818); assay: intact protein LC/MS labeling; format: binding; conditions: covalent; promiscuous compound; 24 h, 4 °C, 2 μM protein, pools of five, pH 7.5
T5 construct: residues 705-1081, E. coli, produced as NUDT7 (His tag removed by TEV), construct 44429 Da
T5 sequence (P40818 705-1081): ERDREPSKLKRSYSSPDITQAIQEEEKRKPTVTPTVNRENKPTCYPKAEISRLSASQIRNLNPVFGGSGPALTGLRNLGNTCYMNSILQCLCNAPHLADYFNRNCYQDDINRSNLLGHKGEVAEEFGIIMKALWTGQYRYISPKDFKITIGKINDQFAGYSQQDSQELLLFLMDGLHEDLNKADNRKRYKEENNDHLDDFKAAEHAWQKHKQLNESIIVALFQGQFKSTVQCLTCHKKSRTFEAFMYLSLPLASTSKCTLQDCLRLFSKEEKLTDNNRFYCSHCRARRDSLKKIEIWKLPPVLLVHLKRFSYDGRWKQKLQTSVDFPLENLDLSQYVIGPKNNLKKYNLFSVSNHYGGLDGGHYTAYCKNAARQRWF

[17] = target: T6, NNMT (hNNMT) (Homo sapiens, UniProt P40261); assay: intact protein LC/MS labeling; format: binding; conditions: covalent; promiscuous compound; 24 h, 4 °C, 2 μM protein, pools of five, pH 7.5
T6 construct: wild type, N-terminal His6 tag kept (no cleavage described), E. coli, construct 31248 Da
T6 sequence (P40261 1-264): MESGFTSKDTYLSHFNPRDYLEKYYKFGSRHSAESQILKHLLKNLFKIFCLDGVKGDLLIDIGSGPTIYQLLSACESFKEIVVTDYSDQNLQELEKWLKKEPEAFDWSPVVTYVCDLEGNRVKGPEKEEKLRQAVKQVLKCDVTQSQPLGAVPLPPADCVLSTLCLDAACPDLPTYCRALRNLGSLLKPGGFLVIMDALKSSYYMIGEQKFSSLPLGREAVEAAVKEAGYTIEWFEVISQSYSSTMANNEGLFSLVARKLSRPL

[18] = target: T6, NNMT (hNNMT); set-up: Intact protein LC/MS covalent labelling, fragments in pools of five, 200 uM each, 4 °C; conditions: 24 h, 4 °C, pool of five; 200 µM; covalent

T4 sequence (Q92831 whole entry, the tested form may be a part): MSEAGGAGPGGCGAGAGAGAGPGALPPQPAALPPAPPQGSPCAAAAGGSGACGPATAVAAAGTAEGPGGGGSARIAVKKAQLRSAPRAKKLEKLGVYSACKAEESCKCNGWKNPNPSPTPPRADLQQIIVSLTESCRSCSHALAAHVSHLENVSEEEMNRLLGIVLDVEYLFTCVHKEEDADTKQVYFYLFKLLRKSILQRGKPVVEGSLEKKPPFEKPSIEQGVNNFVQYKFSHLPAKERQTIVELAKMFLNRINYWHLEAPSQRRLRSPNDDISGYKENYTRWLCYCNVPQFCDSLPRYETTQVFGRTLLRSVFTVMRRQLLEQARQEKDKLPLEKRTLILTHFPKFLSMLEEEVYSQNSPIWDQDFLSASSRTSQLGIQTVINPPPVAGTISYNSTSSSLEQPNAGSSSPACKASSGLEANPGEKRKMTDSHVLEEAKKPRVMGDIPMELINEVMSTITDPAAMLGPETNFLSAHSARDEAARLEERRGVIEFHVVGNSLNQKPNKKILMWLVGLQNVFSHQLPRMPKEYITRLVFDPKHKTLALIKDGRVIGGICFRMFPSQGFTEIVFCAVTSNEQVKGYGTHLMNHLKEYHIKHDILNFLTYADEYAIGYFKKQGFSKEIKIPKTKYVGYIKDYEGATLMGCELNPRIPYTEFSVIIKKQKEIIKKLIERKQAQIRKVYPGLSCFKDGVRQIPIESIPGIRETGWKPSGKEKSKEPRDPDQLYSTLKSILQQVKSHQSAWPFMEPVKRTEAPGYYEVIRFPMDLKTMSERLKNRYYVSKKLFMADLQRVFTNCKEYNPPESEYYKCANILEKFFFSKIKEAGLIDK
T1 sequence (P0C024 14-235): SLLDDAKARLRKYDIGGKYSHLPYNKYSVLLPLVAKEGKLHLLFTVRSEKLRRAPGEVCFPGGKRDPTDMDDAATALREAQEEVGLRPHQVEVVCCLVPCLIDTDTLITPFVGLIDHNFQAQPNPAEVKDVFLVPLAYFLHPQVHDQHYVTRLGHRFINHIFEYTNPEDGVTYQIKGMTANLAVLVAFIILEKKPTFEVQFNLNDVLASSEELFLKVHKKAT
T2 sequence (P02769 whole entry, the tested form may be a part): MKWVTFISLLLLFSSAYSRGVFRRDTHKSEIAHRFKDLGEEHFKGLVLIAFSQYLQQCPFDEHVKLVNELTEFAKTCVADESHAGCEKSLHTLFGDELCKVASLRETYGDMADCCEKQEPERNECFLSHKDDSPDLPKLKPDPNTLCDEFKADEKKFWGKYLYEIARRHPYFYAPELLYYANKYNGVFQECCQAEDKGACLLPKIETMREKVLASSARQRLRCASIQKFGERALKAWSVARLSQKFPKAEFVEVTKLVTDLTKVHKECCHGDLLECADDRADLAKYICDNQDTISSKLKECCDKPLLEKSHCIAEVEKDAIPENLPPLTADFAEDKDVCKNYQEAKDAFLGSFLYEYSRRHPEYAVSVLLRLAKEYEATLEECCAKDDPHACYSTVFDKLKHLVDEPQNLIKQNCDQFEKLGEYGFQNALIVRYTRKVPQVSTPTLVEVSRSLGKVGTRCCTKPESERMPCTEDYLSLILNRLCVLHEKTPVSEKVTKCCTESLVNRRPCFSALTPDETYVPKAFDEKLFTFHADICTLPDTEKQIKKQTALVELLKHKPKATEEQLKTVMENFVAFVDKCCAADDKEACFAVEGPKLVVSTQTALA

SMILES	kinact/KI [1] [M⁻¹ s⁻¹]	IC50 [2] [µM]	KI (inactivation) [3] [µM]	X-ray cocrystal structure [4]	BSA [5]	NUDT7 [6]	OTUB2 [7]	PCAF [8]	viability at 48 h, 10 µM [9] [%]	viability at 48 h, 10 µM [10] [%]	viability at 48 h, 10 µM [11] [%]	X-ray crystal structure, soak [12]	% labeling at 100 μM [13] [%]	% labeling at 5 μM [14] [%]	% labeling at 200 μM [15] [%]	% labeling at 200 μM [16] [%]	% labeling at 200 μM [17] [%]	NNMT [18]
O=C(Cc1cccc(C2CCCN2C(=O)CCl)c1)Nc1cccc(Cl)c1 (racemic) [NUDT7-COV-1]	757	1.1	13.2	–	–	–	–	–	–	–	–	–	–	–	–	–	–	–
COc1cccc(C2CCCN2C(=O)CCl)c1 (racemic) [PCM-0102716]	–	–	–	cocrystal structures of compounds PCM-0102951, PCM-0102558, and PCM-0102716 bound to NUDT7	0	0.68	0.09	0	7.6	34.4	3.6	–	–	–	–	–	–	–
O=C(Cc1cccc(O)c1)Nc1cccc(Cl)c1 [NUDT7-REV-1]	–	–	–	–	–	–	–	–	–	–	–	soaked them into NUDT7 crystals, which yielded a structure in complex with compound NUDT7-REV-1	–	–	–	–	–	–
O=C(CCl)NNC(=O)C(c1ccccc1)c1ccccc1 [OTUB2-COV-17]	–	–	–	–	–	–	–	–	–	–	–	–	100	–	–	–	–	–
O=C(CCl)NNC(=O)C1CC1c1ccc(Cl)cc1 (stereo not drawn) [OTUB2-COV-22]	–	–	–	–	–	–	–	–	–	–	–	–	–	55	–	–	–	–
O=C(CCl)N1CCCC1c1ccc2c(c1)OCCO2 (stereo not drawn) [PCM-0102298]	–	–	–	–	0	1	0	0	5.3	21.6	4.5	–	–	–	100	–	–	–
O=C(CCl)Nc1nc(-c2cc(F)ccc2F)cs1 [PCM-0102496]	–	–	–	–	0	0.53	0	0	3.9	35.7	2.2	–	–	–	–	> 50	> 50	1
O=C(CCl)N1CCCC1c1ccc2c(c1)OCCCO2 (stereo not drawn) [PCM-0102512]	–	–	–	–	0	0.88	0	0	8.3	19.7	3.8	–	–	–	88	–	–	–
COc1ccc(C2CCCCCN2C(=O)CCl)cc1 (stereo not drawn) [PCM-0102558]	233	–	–	–	0	1	0	0	27.4	11	15.3	–	–	–	–	–	–	–
COc1ccc(C2CCCN2C(=O)CCl)cc1 (stereo not drawn) [PCM-0102938]	–	–	–	–	0	1	0	0	12	24.3	6.4	–	–	–	100	–	–	0
O=C(CCl)NC1(c2ccc3c(c2)OCCO3)CCCC1 [PCM-0102951]	–	–	–	cocrystal structures of compounds PCM-0102951, PCM-0102558, and PCM-0102716 bound to NUDT7	0	1	0	0	72.7	69.3	56.4	–	–	–	–	–	–	–
Cc1ccsc1CNC(=O)CCl [PCM-0103075]	–	–	–	–	0.21	0	0.55	0	96.1	76.7	83.8	–	–	–	–	–	–	0
O=C(CCl)Nc1nc(C2CC2)no1 [PCM-0103076]	–	–	–	–	0	0	0.11	0	104	102	97.9	–	–	–	–	–	–	0.16
O=C(CCl)Nc1ccon1 [PCM-0103077]	–	–	–	–	0	0	0.3	0	77.3	61.1	64.8	–	–	–	–	–	–	0
C=CC(=O)NCc1cc(F)c(C(F)(F)F)cc1F [PCM-0103078]	–	–	–	–	0	0	0	0	101	96.9	88.4	–	–	–	–	–	–	0.2
CN(Cc1cc(Br)cs1)C(=O)CCl [PCM-0103081]	–	–	–	–	0	0	0	0	5.1	45.5	11.9	–	–	–	–	–	–	0
